Results as given in US5932742A, “Arylsulfonylimidazolone derivatives as an antitumor agent” (priority 1996, dated 1999).
In brackets after ≈: the same amount, converted by molar mass. Where two headings read alike, the source gives them in different places.

Legend:
Format in all cases: cell-based
[1] = system: Colo205 (ATCC CCL 222): human colon adenocarcinoma; test: In vitro antitumor activity, MTT assay, Colo205; settings: Homo sapiens, COLO 205, Table 3, 48 hrs, read-out: IC50 (Col205)
Protocol: (§1) In vitro antitumor activity against human tumor cell lines
(§2) In vitro antitumor activity of the compounds according to the present invention was determined by MTT assay method against the following human tumor cell lines:
Colo205 (ATCC CCL 222): human colon adenocarcinoma
(§3) In this test, the known antineoplastic compounds, Doxorubicin and Sulofenur, were used as the comparative agents.
(§4) Each of the tumor cells was cultured in RPMI 1640 media containing 10% fetal bovine serum, 100 IU/ml penicillin and 100 μg/ml streptomycin, and then periodically subcultured once or twice per week in trypsin-EDTA solution containing 0.05% trypsin and 0.53mM EDTA.4Na. The human tumor cell line thus obtained (10,000cells/100 μl) was plated on 96-well microplate and then cultured for 24 hrs at 37° C. in a 5% CO2 incubator. Test compound was dissolved in DMSO, sterilized with 0.22 μm PVDF filter, and then serially 5-fold diluted from 40 μg/ml to 0.00256μg/ml. 100 μl of the sample solution thus prepared and RPMI 1640 medium only (control group) were added to 96-well microplate containing the human tumor cell, respectively. The final concentration of the test compound was in the range from 20 μg/ml to 0.00128 μg/ml and the concentration of DMSO was below 0.5%. The cells were cultured for 48 hrs at 37° C. in a 5% CO2 incubator. MTT(3-(4,5-Dimethylthiazole-2-yl)-e,5-diphenyltetrazoliumbromide) was dissolved in physiological saline in a concentration of 2 mg/ml and the resulting solution was filtered through 0.22 μm PTFE filter. 25 μl of MTT solution thus prepared was added to each well of 96-well microplate and incubated for additional 4 hrs at 37° C. in a 5% CO2 incubator. Then, the content of microplate was centrifuged at 1000 rpm for 10 min, and supernatant was removed by flicking. The formazan formed from MTT by mitochondrial succinate dehydrogenase was dissolved in 100 μl of DMSO. The absorbance of each well was measured at 540nm by micro ELISA reader and the cytotoxicity was calculated by dividing the absorbance of test group by the absorbance of control group. After the calculated cytotoxicity (%) was plotted, the concentration of 50% tumor growth inhibition concentration (IC50) was estimated by Linear-Regression method.

[2] = system: SK-OV-3 (ATCC HTB 77): human ovarian adenocarcinoma; test: In vitro antitumor activity, MTT assay, SK-OV-3; settings: Homo sapiens
Protocol: as §1, §2
SK-OV-3 (ATCC HTB 77): human ovarian adenocarcinoma
as §3, §4

[3] = system: K562 (ATCC CCL 243): human chronic myelogenous leukemia; test: In vitro antitumor activity, MTT assay, K562; settings: Homo sapiens, K562, 48 h
Protocol: as §1, §2
K562 (ATCC CCL 243): human chronic myelogenous leukemia
as §3, §4

[4] = system: A549 (ATCC CCL 185): human lung carcinoma; test: In vitro antitumor activity, MTT assay, A549; settings: Homo sapiens, A549, 48 h
Protocol: as §1, §2
A549 (ATCC CCL 185): human lung carcinoma
as §3, §4

SMILES | IC50 [1] [µg/mL] | IC50 ([2]; SK-OV-3, Table 3, 48 hrs) [µg/mL] | IC50 ([3]; Table 3, read-out: IC50 (K562)) [µg/mL] | IC50 ([4]; Table 3) [µg/mL] | IC50 ([2]; SK-OV-3, Table 4, 48 hrs) [µg/mL] | IC50 ([3]; Table 4, read-out: IC50 (K562)) [µg/mL] | IC50 ([4]; Table 4) [µg/mL]
CNC(=S)N1CCc2cc(S(=O)(=O)N3CC(c4ccccc4)NC3=O)ccc21 (centres unmarked) [Example 38, 4-phenyl-1-(N-methylthiocarbamoylindoline-5-sulfonyl)-4,5-dihydro-2-imidazolone] | 0.65 (≈ 1.56 µM) | 1.98 (≈ 4.75 µM) | 0.00452 (≈ 0.0109 µM) | 0.092 (≈ 0.221 µM) | – | – | –
Nc1ccc(NC(=O)N2CCc3cc(S(=O)(=O)N4CC(c5ccccc5)NC4=O)ccc32)cc1 (centres unmarked) [Example 35, 4-phenyl-1-[N-(4-aminophenyl)carbamoylindoline-5-sulfonyl)-4,5-dihydro-2-imidazolone] | 3.24 (≈ 6.78 µM) | 0.763 (≈ 1.6 µM) | 0.004 (≈ 0.00838 µM) | 0.286 (≈ 0.599 µM) | – | – | –
CCCNC(=O)N1CCc2cc(S(=O)(=O)N3CC(c4ccccc4)NC3=O)ccc21 (centres unmarked) [Example 30, 4-phenyl-1-(N-propylcarbamoylindoline-5-sulfonyl)-4,5-dihydro-2-imidazolone] | 0.254 (≈ 0.593 µM) | 0.261 (≈ 0.609 µM) | 0.488 (≈ 1.14 µM) | 0.103 (≈ 0.24 µM) | – | – | –
COc1ccccc1NC(=O)N1CCc2cc(S(=O)(=O)N3CC(c4ccccc4)NC3=O)ccc21 (centres unmarked) [Example 44, 4-phenyl-1-[N-(2-methoxyphenyl)carbamoylindoline-5-sulfonyl]-4,5-dihydro-2-imidazolone] | 1.47 (≈ 2.97 µM) | 0.273 (≈ 0.554 µM) | 0.29 (≈ 0.589 µM) | 0.135 (≈ 0.274 µM) | – | – | –
O=C(NC1CCCCC1)N1CCc2cc(S(=O)(=O)N3CC(c4ccccc4)NC3=O)ccc21 (centres unmarked) [Example 33, 4-phenyl-1-(N-cyclohexylcarbamoylindoline-5-sulfonyl)-4,5-dihydro-2-imidazolone] | 0.172 (≈ 0.367 µM) | 0.043 (≈ 0.0918 µM) | 0.0037 (≈ 0.0079 µM) | 0.003 (≈ 0.0064 µM) | – | – | –
O=C1NC(c2ccccc2)CN1S(=O)(=O)c1ccc2c(c1)CCN2C(=S)Nc1ccc(F)cc1 (centres unmarked) [Example 46, 4-phenyl-1-[N-(4-fluorophenyl)thiocarbamoylindoline-5-sulfonyl]-4,5-dihydro-2-imidazolone] | 8.74 (≈ 17.6 µM) | 3.13 (≈ 6.3 µM) | 3.94 (≈ 7.94 µM) | 3.29 (≈ 6.63 µM) | – | – | –
O=C(c1cccc(F)c1)N1CCc2cc(S(=O)(=O)N3CC(c4ccccc4)NC3=O)ccc21 (centres unmarked) [Example 60, 4-phenyl-1-[N-(3-fluorobenzoyl)indoline-5-sulfonyl]-4,5-dihydro-2-imidazolone] | – | – | – | – | 8.51 (≈ 18.3 µM) | 0.619 (≈ 1.33 µM) | 0.328 (≈ 0.705 µM)
Cc1ccc(NC(=O)N2CCc3cc(S(=O)(=O)N4CC(c5ccccc5)NC4=O)ccc32)cc1 (centres unmarked) [Example 45, 4-phenyl-1-[N-(4-methylphenyl)carbamoylindoline-5-sulfonyl]-4,5-dihydro-2-imidazolone] | 3.27 (≈ 6.85 µM) | 0.813 (≈ 1.71 µM) | 1.03 (≈ 2.17 µM) | 0.311 (≈ 0.653 µM) | – | – | –
Cc1ccc(C(=O)N2CCc3cc(S(=O)(=O)N4CC(c5ccccc5)NC4=O)ccc32)cc1 (centres unmarked) [Example 48, 4-phenyl-1-[N-(4-methylbenzoyl)indoline-5-sulfonyl]-4,5-dihydro-2-imidazolone] | – | – | – | – | > 20 | 2.4 (≈ 5.2 µM) | 1.74 (≈ 3.76 µM)
COc1ccc(NC(=O)N2CCc3cc(S(=O)(=O)N4CC(c5ccccc5)NC4=O)ccc32)cc1 (centres unmarked) [Example 36, 4-phenyl-1-[N-(4-methoxyphenyl)carbamoylindoline-5-sulfonyl]-4,5-dihydro-2-imidazolone] | 0.391 (≈ 0.794 µM) | 0.047 (≈ 0.0954 µM) | 6.92 (≈ 14 µM) | 0.18 (≈ 0.365 µM) | – | – | –
O=C(c1ccc(F)cc1F)N1CCc2cc(S(=O)(=O)N3CC(c4ccccc4)NC3=O)ccc21 (centres unmarked) [Example 61, 4-phenyl-1-[N-(2,4-difluorobenzoyl)indoline-5-sulfonyl]-4,5-dihydro-2-imidazolone] | – | – | – | – | 1.52 (≈ 3.14 µM) | 5.66 (≈ 11.7 µM) | 1.94 (≈ 4.01 µM)
COc1ccc(C(=O)N2CCc3cc(S(=O)(=O)N4CC(c5ccccc5)NC4=O)ccc32)cc1OC (centres unmarked) [Example 51, 4-phenyl-1-[N-(3,4-dimethoxybenzoyl)indoline-5-sulfonyl]-4,5-dihydro-2-imidazolone] | – | – | – | – | 12.1 (≈ 23.9 µM) | 0.218 (≈ 0.429 µM) | 1.65 (≈ 3.25 µM)
CSc1ccc(NC(=O)N2CCc3cc(S(=O)(=O)N4CC(c5ccccc5)NC4=O)ccc32)cc1 (centres unmarked) [Example 37] | 0.71 (≈ 1.4 µM) | 0.716 (≈ 1.41 µM) | > 20 | 2.34 (≈ 4.6 µM) | – | – | –
COc1ccc(NC(=S)N2CCc3cc(S(=O)(=O)N4CC(c5ccccc5)NC4=O)ccc32)cc1 (centres unmarked) [Example 43, 4-phenyl-1-[N-(4-methoxyphenyl)thiocarbamoylindoline-5-sulfonyl]-4,5-dihydro-2-imidazolone] | – | 1.03 (≈ 2.03 µM) | 1.28 (≈ 2.52 µM) | 1.27 (≈ 2.49 µM) | – | – | –
N#Cc1ccc(C(=O)N2CCc3cc(S(=O)(=O)N4CC(c5ccccc5)NC4=O)ccc32)cc1 (centres unmarked) [Example 56, 4-phenyl-1-[N-(4-cyanobenzoyl)indoline-5-sulfonyl]-4,5-dihydro-2-imidazolone] | – | – | – | – | 0.968 (≈ 2.05 µM) | 4.96 (≈ 10.5 µM) | 1.59 (≈ 3.36 µM)
CC(C)NC(=O)N1CCc2cc(S(=O)(=O)N3CC(c4ccccc4)NC3=O)ccc21 (centres unmarked) [Example 31, 4-phenyl-1-(N-isopropylcarbamoylindoline-5-sulfonyl)-4,5-dihydro-2-imidazolone] | 0.258 (≈ 0.602 µM) | 0.28 (≈ 0.653 µM) | 0.439 (≈ 1.02 µM) | 0.073 (≈ 0.17 µM) | – | – | –
CCCCNC(=S)N1CCc2cc(S(=O)(=O)N3CC(c4ccccc4)NC3=O)ccc21 (centres unmarked) [Example 41, 4-phenyl-1-(N-butylthiocarbamoylindoline-5-sulfonyl)-4 5-dihydro-2-imidazolone] | 2.4 (≈ 5.23 µM) | 0.897 (≈ 1.96 µM) | 2.05 (≈ 4.48 µM) | 0.584 (≈ 1.27 µM) | – | – | –
O=C(c1cccc(C(F)(F)F)c1)N1CCc2cc(S(=O)(=O)N3CC(c4ccccc4)NC3=O)ccc21 (centres unmarked) [Example 62, 4-phenyl-1-[N-(3-trifluoromethylbenzoyl)indoline-5-sulfonyl]-4,5-dihydro-2-imidazolone] | – | – | – | – | 11.8 (≈ 22.8 µM) | 1.37 (≈ 2.65 µM) | 2.18 (≈ 4.24 µM)
O=C(c1cccc(Cl)c1)N1CCc2cc(S(=O)(=O)N3CC(c4ccccc4)NC3=O)ccc21 (centres unmarked) [Example 58, 4-phenyl-1-[N-(3-chlorobenzoyl)indoline-5-sulfonyl]-4,5-dihydro-2-imidazolone] | – | – | – | – | 2.6 (≈ 5.39 µM) | 7.04 (≈ 14.6 µM) | 1.62 (≈ 3.36 µM)
COc1ccc(C(=O)N2CCc3cc(S(=O)(=O)N4CC(c5ccccc5)NC4=O)ccc32)cc1 (centres unmarked) [Example 50, 4-phenyl-1-[N-(4-methoxybenzoyl)indoline-5-sulfonyl]-4,5-dihydro-2-imidazolone] | – | – | – | – | 1.37 (≈ 2.87 µM) | 2.19 (≈ 4.58 µM) | 1.56 (≈ 3.28 µM)
CCCNC(=S)N1CCc2cc(S(=O)(=O)N3CC(c4ccccc4)NC3=O)ccc21 (centres unmarked) [Example 40, 4-phenyl-1-(N-propylthiocarbamoylindoline-5-sulfonyl)-4,5-dihydro-2-imidazolone] | – | 3.66 (≈ 8.24 µM) | 0.337 (≈ 0.758 µM) | 0.245 (≈ 0.551 µM) | – | – | –
